# Source: US20240150377A1, “MODULATORS OF CYSTIC FIBROSIS TRANSMEMBRANE CONDUCTANCE REGULATOR” (VERTEX PHARMACEUTICALS INCORPORATED, priority 2020, published 2024)
# Target: T1, CFTR (Homo sapiens, UniProt P13569, DEL508-508)
# T1 construct: endogenous in cells; host or cells: primary human bronchial epithelial cells from CF subjects (F508del/MF-HBE), differentiated at air-liquid interface
# Test: HBE2 assay: Ussing chamber assay of CFTR-mediated short-circuit currents
# Format: cell-based
# Conditions: 3 μM; F508del/MF-HBE cells; with 44 nM potentiator; 18-24 hours; 20% human serum
# How it was run: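 F508del/MF-HBE cultured >14 days at air-liquid interface, mounted in Ussing chambers; transepithelial short-circuit current recorded under voltage clamp (Vhold=0 mV) at 37 °C. CFTR-mediated ISC (μA/cm^2) taken as peak forskolin response relative to steady-state current after inhibition; corrector activity assessed this way.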
# T1 sequence (P13569 with tags, fused parts or gaps DEL508-508): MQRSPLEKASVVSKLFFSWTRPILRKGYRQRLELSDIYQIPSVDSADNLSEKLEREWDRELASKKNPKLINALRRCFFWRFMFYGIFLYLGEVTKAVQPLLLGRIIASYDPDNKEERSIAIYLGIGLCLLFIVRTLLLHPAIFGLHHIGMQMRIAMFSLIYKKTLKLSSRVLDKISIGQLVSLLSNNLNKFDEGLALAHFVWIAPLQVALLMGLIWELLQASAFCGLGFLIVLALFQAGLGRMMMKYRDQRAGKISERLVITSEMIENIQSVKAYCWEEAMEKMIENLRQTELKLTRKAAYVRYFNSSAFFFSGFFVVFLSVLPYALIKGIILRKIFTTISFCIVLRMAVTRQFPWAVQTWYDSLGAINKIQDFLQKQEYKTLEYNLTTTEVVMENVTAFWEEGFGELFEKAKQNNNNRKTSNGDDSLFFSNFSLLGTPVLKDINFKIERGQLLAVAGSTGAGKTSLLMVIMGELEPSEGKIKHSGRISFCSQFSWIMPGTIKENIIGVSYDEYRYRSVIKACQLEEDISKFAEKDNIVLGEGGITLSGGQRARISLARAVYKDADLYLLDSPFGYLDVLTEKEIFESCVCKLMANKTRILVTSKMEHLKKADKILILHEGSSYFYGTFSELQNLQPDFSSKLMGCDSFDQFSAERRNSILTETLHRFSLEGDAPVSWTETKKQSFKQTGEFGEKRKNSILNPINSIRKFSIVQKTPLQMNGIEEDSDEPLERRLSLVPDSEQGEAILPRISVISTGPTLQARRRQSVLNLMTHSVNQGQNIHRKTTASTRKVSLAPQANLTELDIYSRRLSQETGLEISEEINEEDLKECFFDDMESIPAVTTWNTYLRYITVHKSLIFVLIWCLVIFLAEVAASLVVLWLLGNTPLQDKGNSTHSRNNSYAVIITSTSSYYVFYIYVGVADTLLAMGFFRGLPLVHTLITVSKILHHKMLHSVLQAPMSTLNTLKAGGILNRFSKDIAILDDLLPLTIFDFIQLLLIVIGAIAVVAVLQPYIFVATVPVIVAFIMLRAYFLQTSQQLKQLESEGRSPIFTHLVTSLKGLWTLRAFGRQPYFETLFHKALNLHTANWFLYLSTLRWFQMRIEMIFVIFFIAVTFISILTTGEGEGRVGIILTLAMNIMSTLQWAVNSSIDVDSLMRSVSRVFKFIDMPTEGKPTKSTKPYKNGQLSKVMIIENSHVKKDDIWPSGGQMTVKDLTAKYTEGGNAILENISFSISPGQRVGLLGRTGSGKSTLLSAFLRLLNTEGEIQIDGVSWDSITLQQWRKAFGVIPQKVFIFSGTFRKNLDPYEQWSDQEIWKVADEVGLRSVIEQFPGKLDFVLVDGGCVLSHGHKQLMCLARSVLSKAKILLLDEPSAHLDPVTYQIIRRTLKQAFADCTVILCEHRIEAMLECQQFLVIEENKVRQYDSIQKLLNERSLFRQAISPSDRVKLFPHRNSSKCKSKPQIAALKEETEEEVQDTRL
row,SMILES,HBE2 Activity at 3 μM (%)
1,Cc1cccc(C)c1-c1cc2nc(n1)NS(=O)(=O)c1cccc(c1)C(=O)N(Cc1cncc(N3CCCC3c3ccnn3C)n1)[C@H](CC(C)(C)C)CO2 (some centres unmarked) [Compound 1606],+++ (+++ is >60+)
2,CO[C@H]1C[C@@H](N(C)c2cncc(CN3C(=O)c4cccc(c4)S(=O)(=O)Nc4nc(cc(-c5c(C)cccc5C)n4)OC[C@H]3CC(C)(C)C)n2)C1 [Compound 1611],+++ (+++ is >60+)
3,Cc1cccc(C)c1-c1cc2nc(n1)NS(=O)(=O)c1cccc(c1)C(=O)N(Cc1cnc(N(C)C3CCC3)cn1)[C@H](CC(C)(C)C)CO2 [Compound 1612],+++ (+++ is >60+)
4,Cc1cccc(C)c1-c1cc2nc(n1)NS(=O)(=O)c1cccc(c1)C(=O)N(Cc1cncc(N(C)CC3(C)COC3)n1)[C@H](CC(C)(C)C)CO2 [Compound 1613],+++ (+++ is >60+)
5,Cc1cccc(C)c1-c1cc2nc(n1)NS(=O)(=O)c1cccc(c1)C(=O)N(Cc1cncc(N(C)CC3CCC3)n1)[C@H](CC(C)(C)C)CO2 [Compound 1614],+++ (+++ is >60+)
6,Cc1cccc(C)c1-c1cc2nc(n1)NS(=O)(=O)c1cccc(c1)C(=O)N(Cc1ccnc(N(C)C3CCC3)n1)[C@H](CC(C)(C)C)CO2 [Compound 1616],+++ (+++ is >60+)
7,CC[C@@]1(COC)CCCN1c1cccc(CN2C(=O)c3cccc(c3)S(=O)(=O)Nc3nc(cc(-c4c(C)cccc4C)n3)OC[C@H]2CC(C)(C)C)n1 [Compound 1617],+++ (+++ is >60+)
8,COC[C@H]1C[C@@H](N(C)c2cncc(CN3C(=O)c4cccc(c4)S(=O)(=O)Nc4nc(cc(-c5c(C)cccc5C)n4)OC[C@H]3CC(C)(C)C)n2)C1 [Compound 1619],+++ (+++ is >60+)
9,COC[C@H]1C[C@H](N(C)c2cncc(CN3C(=O)c4cccc(c4)S(=O)(=O)Nc4nc(cc(-c5c(C)cccc5C)n4)OC[C@H]3CC(C)(C)C)n2)C1 [Compound 1620],+++ (+++ is >60+)
10,Cc1cccc(C)c1-c1cc2nc(n1)NS(=O)(=O)c1cccc(c1)C(=O)N(Cc1cncc(N3CCC34COC4)n1)[C@H](CC(C)(C)C)CO2 [Compound 1624],+++ (+++ is >60+)
11,Cc1cccc(C)c1-c1cc2nc(n1)NS(=O)(=O)c1cccc(c1)C(=O)N(Cc1cncc(N3CCCC34CCC4)n1)[C@H](CC(C)(C)C)CO2 [Compound 1625],+++ (+++ is >60+)
12,Cc1cccc(C)c1-c1cc2nc(n1)NS(=O)(=O)c1cccc(c1)C(=O)N(Cc1cncc(N3CCCCC34CCC4)n1)[C@H](CC(C)(C)C)CO2 [Compound 1626],+++ (+++ is >60+)
13,Cc1cccc(C)c1-c1cc2nc(n1)NS(=O)(=O)c1cccc(c1)C(=O)N(Cc1cncc(N3CCOCC34CCC4)n1)[C@H](CC(C)(C)C)CO2 [Compound 1627],+++ (+++ is >60+)
14,Cc1cccc(C)c1-c1cc2nc(n1)NS(=O)(=O)c1cccc(c1)C(=O)N(Cc1cncc(N(C)CC(=O)N(C)C)n1)[C@H](CC(C)(C)C)CO2 [Compound 1630],++ (++ is 30-60%)
15,CO[C@H]1C[C@H](CN(C)c2cncc(CN3C(=O)c4cccc(c4)S(=O)(=O)Nc4nc(cc(-c5c(C)cccc5C)n4)OC[C@H]3CC(C)(C)C)n2)C1 [Compound 1631],+++ (+++ is >60+)
16,CO[C@H](C)CN(C)c1cncc(CN2C(=O)c3cccc(c3)S(=O)(=O)Nc3nc(cc(-c4c(C)cccc4C)n3)OC[C@H]2CC(C)(C)C)n1 [Compound 1633],+++ (+++ is >60+)
17,COCC1(N(C)c2cncc(CN3C(=O)c4cccc(c4)S(=O)(=O)Nc4nc(cc(-c5c(C)cccc5C)n4)OC[C@H]3CC(C)(C)C)n2)CCC1 [Compound 1635],+++ (+++ is >60+)
18,Cc1cccc(C)c1-c1cc2nc(n1)NS(=O)(=O)c1cccc(c1)C(=O)N(Cc1cncc(N(C)c3cnn(C)c3)n1)[C@H](CC(C)(C)C)CO2 [Compound 1636],+++ (+++ is >60+)
19,Cc1cccc(C)c1-c1cc2nc(n1)NS(=O)(=O)c1cccc(c1)C(=O)N(Cc1cncc(N3CCC4C3CC(=O)N4C)n1)[C@H](CC(C)(C)C)CO2 (some centres unmarked) [Compound 1639],+++ (+++ is >60+)
20,CCCOc1cnc(CN2C(=O)c3cccc(c3)S(=O)(=O)Nc3nc(cc(-c4c(C)cccc4C)n3)OC[C@H]2CC2(C)CCC2)nc1 [Compound 1641],+++ (+++ is >60+)
21,Cc1cccc(C)c1-c1cc2nc(n1)NS(=O)(=O)c1cccc(c1)C(=O)N(Cc1cncc(N3CCC4OCCC43)n1)[C@H](CC(C)(C)C)CO2 (some centres unmarked) [Compound 1642],+++ (+++ is >60+)
22,Cc1cccc(C)c1-c1cc2nc(n1)NS(=O)(=O)c1cccc(c1)C(=O)N(Cc1cncc(N3CCC4OCCC43)n1)[C@H](CC(C)(C)C)CO2 (some centres unmarked) [Compound 1643],+++ (+++ is >60+)

row,SMILES,HBE2 Activity at 3 μM (%)
1,Cc1cccc(C)c1-c1cc2nc(n1)NS(=O)(=O)c1cccc(c1)C(=O)N(Cc1cncc(N3CC(=O)N(C)C[C@H]3C)n1)[C@H](CC(C)(C)C)CO2 [Compound 1644],+++ (+++ is >60+)
2,CCN(c1nc(CN2C(=O)c3cccc(c3)S(=O)(=O)Nc3nc(cc(-c4c(C)cccc4C)n3)OC[C@H]2CC(C)(C)C)co1)C1CCC1 [Compound 1645],+++ (+++ is >60+)
3,Cc1cccc(C)c1-c1cc2nc(n1)NS(=O)(=O)c1cccc(c1)C(=O)N(Cc1coc(N(C)CC3CCC3)n1)[C@H](CC(C)(C)C)CO2 [Compound 1646],+++ (+++ is >60+)
4,Cc1cccc(C)c1-c1cc2nc(n1)NS(=O)(=O)c1cccc(c1)C(=O)N(Cc1coc(N(C)C3CC(F)(F)C3)n1)[C@H](CC(C)(C)C)CO2 [Compound 1647],+++ (+++ is >60+)
5,Cc1cccc(C)c1-c1cc2nc(n1)NS(=O)(=O)c1cccc(c1)C(=O)N(Cc1cncc(N(C)CCN(C)C(=O)OC(C)(C)C)n1)[C@H](CC(C)(C)C)CO2 [Compound 1648],+++ (+++ is >60+)
6,Cc1cccc(C)c1-c1cc2nc(n1)NS(=O)(=O)c1cccc(c1)C(=O)N(Cc1cncc(N(C)CCOC(C)(C)C)n1)[C@H](CC(C)(C)C)CO2 [Compound 1650],+++ (+++ is >60+)
7,Cc1cccc(C)c1-c1cc2nc(n1)NS(=O)(=O)c1cccc(c1)C(=O)N(Cc1nc(N(C)C3CCC3)c(C)nc1C)[C@H](CC(C)(C)C)CO2 [Compound 1651],+++ (+++ is >60+)
8,Cc1cccc(C)c1-c1cc2nc(n1)NS(=O)(=O)c1cccc(c1)C(=O)N(Cc1cncc(N3CCCC3=O)n1)[C@H](CC(C)(C)C)CO2 [Compound 1652],+++ (+++ is >60+)
9,Cc1cccc(C)c1-c1cc2nc(n1)NS(=O)(=O)c1cccc(c1)C(=O)N(Cc1cncc(N3C(=O)OC[C@H]3C)n1)[C@H](CC(C)(C)C)CO2 [Compound 1653],+++ (+++ is >60+)
10,Cc1cccc(C)c1-c1cc2nc(n1)NS(=O)(=O)c1cccc(c1)C(=O)N(Cc1cnc(N3CC(C)(C)C3)cn1)[C@H](CC(C)(C)C)CO2 [Compound 1654],+++ (+++ is >60+)
11,Cc1cccc(C)c1-c1cc2nc(n1)NS(=O)(=O)c1cccc(c1)C(=O)N(Cc1ccc(N3CC(C)(C)C3)cn1)[C@H](CC(C)(C)C)CO2 [Compound 1655],+++ (+++ is >60+)
12,CNC(=O)CC1CCCN1c1cncc(CN2C(=O)c3cccc(c3)S(=O)(=O)Nc3nc(cc(-c4c(C)cccc4C)n3)OC[C@H]2CC(C)(C)C)n1 (some centres unmarked) [Compound 1657],+++ (+++ is >60+)
13,Cc1cccc(C)c1-c1cc2nc(n1)NS(=O)(=O)c1cccc(c1)C(=O)N(Cc1cncc(N3CCCC3CC(=O)N(C)C)n1)[C@H](CC(C)(C)C)CO2 (some centres unmarked) [Compound 1658],+++ (+++ is >60+)
14,Cc1cccc(C)c1-c1cc2nc(n1)NS(=O)(=O)c1cccc(c1)C(=O)N(Cc1cncc(N3CCCC3C(=O)N(C)C)n1)[C@H](CC(C)(C)C)CO2 (some centres unmarked) [Compound 1660],+++ (+++ is >60+)
15,CC(=O)N(C)CCN(C)c1cncc(CN2C(=O)c3cccc(c3)S(=O)(=O)Nc3nc(cc(-c4c(C)cccc4C)n3)OC[C@H]2CC(C)(C)C)n1 [Compound 1661],+++ (+++ is >60+)
16,Cc1cccc(C)c1-c1cc2nc(n1)NS(=O)(=O)c1cccc(c1)C(=O)N(Cc1cncc(N(C)CCN(C)C(=O)OC(C)C)n1)[C@H](CC(C)(C)C)CO2 [Compound 1662],+++ (+++ is >60+)
17,Cc1cccc(C)c1-c1cc2nc(n1)NS(=O)(=O)c1cccc(c1)C(=O)N(Cc1cncc(N(C)CCO)n1)[C@H](CC(C)(C)C)CO2 [Compound 1665],+++ (+++ is >60+)
18,CNC(=O)OCCN(C)c1cncc(CN2C(=O)c3cccc(c3)S(=O)(=O)Nc3nc(cc(-c4c(C)cccc4C)n3)OC[C@H]2CC(C)(C)C)n1 [Compound 1666],+++ (+++ is >60+)
19,Cc1cccc(C)c1-c1cc2nc(n1)NS(=O)(=O)c1cccc(c1)C(=O)N(Cc1cncc(N(C)CCOC(=O)N(C)C)n1)[C@H](CC(C)(C)C)CO2 [Compound 1667],+++ (+++ is >60+)
20,Cc1cccc(C)c1-c1cc2nc(n1)NS(=O)(=O)c1cccc(c1)C(=O)N(Cc1cncc(N(C)C3CCC3)n1)[C@H](CC1(C)CC1)CO2 [Compound 1668],+++ (+++ is >60+)
21,Cc1cccc(C)c1-c1cc2nc(n1)NS(=O)(=O)c1cccc(c1)C(=O)N(Cc1cncc(N(C)C3CCC3)n1)[C@H](CC1CCC1)CO2 [Compound 1669],+++ (+++ is >60+)
22,Cc1cccc(C)c1-c1cc2nc(n1)NS(=O)(=O)c1cccc(c1)C(=O)N(Cc1cncc(N(C)C3CCC3)n1)[C@H](CC1CC1)CO2 [Compound 1670],+++ (+++ is >60+)

# Same assay, conditions: F508del/MF-HBE cells; with 44 nM potentiator; 18-24 hours; 20% human serum
row,SMILES,EC50
1,Cc1cccc(C)c1-c1cc2nc(n1)NS(=O)(=O)c1cccc(c1)C(=O)N(Cc1cncc(N(C)C3CCC3)n1)[C@H](CC1(C)CC1)CO2 [Compound 1668],< 1000 nM
2,Cc1cccc(C)c1-c1cc2nc(n1)NS(=O)(=O)c1cccc(c1)C(=O)N(Cc1cncc(N(C)C3CCC3)n1)[C@H](CC1CCC1)CO2 [Compound 1669],< 1000 nM
3,Cc1cccc(C)c1-c1cc2nc(n1)NS(=O)(=O)c1cccc(c1)C(=O)N(Cc1cncc(N(C)C3CCC3)n1)[C@H](CC1CC1)CO2 [Compound 1670],< 1000 nM

# Same assay, conditions: F508del/MF-HBE cells; with 44 nM potentiator; 18-24 hours; 20% human serum; read-out: HBE2 Max activity (%)
row,SMILES,Emax
1,Cc1cccc(C)c1-c1cc2nc(n1)NS(=O)(=O)c1cccc(c1)C(=O)N(Cc1cncc(N(C)C3CCC3)n1)[C@H](CC1(C)CC1)CO2 [Compound 1668],> 60%
2,Cc1cccc(C)c1-c1cc2nc(n1)NS(=O)(=O)c1cccc(c1)C(=O)N(Cc1cncc(N(C)C3CCC3)n1)[C@H](CC1CCC1)CO2 [Compound 1669],> 60%
3,Cc1cccc(C)c1-c1cc2nc(n1)NS(=O)(=O)c1cccc(c1)C(=O)N(Cc1cncc(N(C)C3CCC3)n1)[C@H](CC1CC1)CO2 [Compound 1670],> 60%
